Measurements from patent US8153653B2, “Amido-tropane derivatives” (Hoffmann-La Roche Inc., priority 2010, dated 2012).

molecular target: T1, mGlyT-1b (Mus musculus, UniProt P28571); assay: Glycine Uptake Inhibition Assay (mGlyT-1b); format: cell-based; conditions: [3H]-glycine uptake in Flp-in-CHO cells stably transfected with mGlyT-1b cDNA; 20 min preincubation at 22° C.
T1 construct: host or cells: Flp-in-CHO cells, stably transfected
T1 sequence (P28571 1-651 isoform P28571-2): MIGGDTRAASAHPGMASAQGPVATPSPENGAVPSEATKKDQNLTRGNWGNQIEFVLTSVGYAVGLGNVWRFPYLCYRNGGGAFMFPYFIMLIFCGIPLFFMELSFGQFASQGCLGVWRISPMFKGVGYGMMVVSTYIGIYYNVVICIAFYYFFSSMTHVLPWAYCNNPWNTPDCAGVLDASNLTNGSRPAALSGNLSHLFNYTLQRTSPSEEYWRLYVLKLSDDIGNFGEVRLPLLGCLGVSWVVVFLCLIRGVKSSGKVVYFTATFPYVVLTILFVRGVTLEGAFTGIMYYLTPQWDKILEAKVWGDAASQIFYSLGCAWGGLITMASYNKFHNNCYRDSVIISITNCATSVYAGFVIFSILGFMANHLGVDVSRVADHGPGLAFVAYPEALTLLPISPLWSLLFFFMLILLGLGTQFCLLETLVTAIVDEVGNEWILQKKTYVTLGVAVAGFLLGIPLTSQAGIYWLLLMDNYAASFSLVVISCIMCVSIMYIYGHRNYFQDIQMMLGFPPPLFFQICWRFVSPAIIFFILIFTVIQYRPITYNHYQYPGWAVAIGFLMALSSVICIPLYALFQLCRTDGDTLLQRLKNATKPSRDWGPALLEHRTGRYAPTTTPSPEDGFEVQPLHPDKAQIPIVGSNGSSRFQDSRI
Description: DMEM complete medium: Nutrient mixture F-12 (Gibco Life-technologies), fetal bovine serum (FBS) 5%, (Gibco life technologies), Penicillin/Streptomycin 1% (Gibco life technologies), Hygromycin 0.6 mg/ml (Gibco life technologies), Glutamine 1 mM Gibco life technologies) Uptake buffer (UB): 150 mM NaCl, 10 mM Hepes-Tris, pH 7.4, 1 mM CaCl2, 2.5 mM KCl, 2.5 mM MgSO4, 10 mM (+) D-glucose. Flp-in™-CHO (Invitrogen Cat n° R758-07) cells stably transfected with mGlyT1b cDNA.
Glycine Uptake Inhibition Assay (mGlyT-1b)
On day 1 mammalian cells, (Flp-in™-CHO), transfected with mGlyT-1b cDNA, were plated at the density of 40,000 cells/well in complete F-12 medium, without hygromycin in 96-well culture plates. On day 2, the medium was aspirated and the cells were washed twice with uptake buffer (UB). The cells were then incubated for 20 min at 22° C. with either (i) no potential competitor, (ii) 10 mM non-radioactive glycine, (iii) a concentration of a potential inhibitor. A range of concentrations of the potential inhibitor was used to generate data for calculating the concentration of inhibitor resulting in 50% of the effect (e.g. IC50, the concentration of the competitor inhibiting glycine uptake of 50%). A solution was then immediately added containing [^3H]-glycine 60 nM (11-16 Ci/mmol) and 25 μM non-radioactive glycine. The plates were incubated with gentle shaking and the reaction was stopped by aspiration of the mixture and washing (three times) with ice-cold UB. The cells were lysed with scintillation liquid, shaken 3 hours and the radioactivity in the cells was counted using a scintillation counter.

Question: Which IC50 does the source give for CCc1cc(C(F)(F)F)ccc1C(=O)N[C@]1(c2ccccc2)CC[C@H]2CC[C@@H]1N2C (stereo in doubt) [Example 5, 2-Ethyl-N-((1S,2S,5R) or (1R,2R,5S)-8-methyl-2-phenyl-8-aza-bicyclo[3.2.1]oct-2-yl)-4-trifluoromethyl-benzamide] here?
Answer: 19 nM

Question: How did the IC50 turn out when CCc1cc(C(F)(F)F)cc(OC)c1C(=O)N[C@@]1(c2ccccc2)CC[C@@H]2CC[C@H]1N2C (racemic) [Example 13, 2-Ethyl-6-methoxy-N-((1RS,2RS,5SR)-8-methyl-2-phenyl-8-aza-bicyclo[3.2.1]oct-2-yl)-4-trifluoromethyl-benzamide] was run?
Answer: 14 nM

Question: For COc1cc(C(F)(F)F)cc(C2CC2)c1C(=O)N[C@@]1(c2ccccc2)CC[C@@H]2CC[C@H]1N2C (stereo in doubt) [Example 12, 2-Cyclopropyl-6-methoxy-N-((1R,2R,5S) or (1S,2S,5R)-8-methyl-2-phenyl-8-aza-bicyclo[3.2.1]oct-2-yl)-4-trifluoromethyl-benzamide], which IC50 is on record?
Answer: 6 nM

Question: CCc1cc(C(F)(F)F)ccc1C(=O)N[C@@]1(c2ccccc2)CC[C@@H]2CC[C@H]1N2C (stereo in doubt) [Example 6, 2-Ethyl-N-((1R,2R,5S) or (1S,2S,5R)-8-methyl-2-phenyl-8-aza-bicyclo[3.2.1]oct-2-yl)-4-trifluoromethyl-benzamide] was tested. Which IC50 did it give?
Answer: 31 nM

Question: For COc1cc(C(F)(F)F)cc(C)c1C(=O)N[C@@]1(c2ccccc2)CC[C@@H]2CC[C@H]1N2C (stereo in doubt) [Example 7, 2-Methoxy-6-methyl-N-((1RS,2RS,5SR)-8-methyl-2-phenyl-8-aza-bicyclo[3.2.1]oct-2-yl)-4-trifluoromethyl-benzamide], which IC50 is on record?
Answer: 6 nM

Question: With COc1cc(C(F)(F)F)cc(C)c1C(=O)N[C@@]1(c2ccccc2)CC[C@@H]2CC[C@H]1N2C (stereo in doubt) [Example 9, 2-Methoxy-6-methyl-N-((1R,2R,5S) or (1S,2S,5R)-8-methyl-2-phenyl-8-aza-bicyclo[3.2.1]oct-2-yl)-4-trifluoromethyl-benzamide] as the molecule, how does the IC50 read?
Answer: 20 nM

Question: For COc1cc(C(F)(F)F)cc(C2CC2)c1C(=O)N[C@@]1(c2ccccc2)CC[C@@H]2CC[C@H]1N2C (stereo in doubt) [Example 10, 2-Cyclopropyl-6-methoxy-N-((1RS,2RS,5SR)-8-methyl-2-phenyl-8-aza-bicyclo[3.2.1]oct-2-yl)-4-trifluoromethyl-benzamide], which IC50 is on record?
Answer: 4 nM

Question: With COc1cc(C(F)(F)F)cc(C)c1C(=O)N[C@]1(c2ccccc2)CC[C@H]2CC[C@@H]1N2C (stereo in doubt) [Example 8, 2-Methoxy-6-methyl-N-((1S,2S,5R) or (1R,2R,5S)-8-methyl-2-phenyl-8-aza-bicyclo[3.2.1]oct-2-yl)-4-trifluoromethyl-benzamide] as the molecule, how does the IC50 read?
Answer: 20 nM

Question: How did the IC50 turn out when COc1cc(C(F)(F)F)cc(C2CC2)c1C(=O)N[C@]1(c2ccccc2)CC[C@H]2CC[C@@H]1N2C (stereo in doubt) [Example 11, 2-Cyclopropyl-6-methoxy-N-((1S,2S,5R) or (lR,2R.5S)-8-methyl-2-phenyl-8-aza-bicyclo[3.2.1]oct-2-yl)-4-trifluoromethyl-benzamide] was run?
Answer: 6 nM

Question: For CN1[C@H]2CC[C@@H]1[C@](NC(=O)c1ccc(C(F)(F)F)cc1C1CC1)(c1ccccc1)CC2 (racemic) [Example 4, 2-Cyclopropyl-N-((1RS,2RS,5SR)-8-methyl-2-phenyl-8-aza-bicyclo[3.2.1]oct-2-yl)-4-trifluoromethyl-benzamide], which IC50 is on record?
Answer: 8 nM

Question: For COc1cc(C(F)(F)F)cc(SC)c1C(=O)N[C@]1(c2ccccc2)CC[C@H]2CC[C@@H]1N2C [Example 2, 2-Methoxy-N-((1S,2S,5R)-8-methyl-2-phenyl-8-aza-bicyclo[3.2.l]oct-2-yl)-6-methylsulfanyl-4-trifluoromethyl-benzamide], which IC50 is on record?
Answer: 21 nM

Question: How did the IC50 turn out when COc1cc(C(F)(F)F)cc(SC)c1C(=O)N[C@@]1(c2ccccc2)CC[C@@H]2CC[C@H]1N2C (racemic) [Example 3, 2-Methoxy-N-((1R,2R,5S)-8-methyl-2-phenyl-8-aza-bicyclo[3.2.1]oct-2-yl)-6-methylsulfanyl-4-trifluoromethyl-benzamide] was run?
Answer: 8 nM

Question: Which IC50 does the source give for COc1cc(C(F)(F)F)cc(SC)c1C(=O)N[C@@]1(c2ccccc2)CC[C@@H]2CC[C@H]1N2C (racemic) [Example 1, 2-Methoxy-N-((1RS,2RS,5SR)-8-methyl-2-phenyl-8-aza-bicyclo[3.2.1]oct-2-yl)-6-methylsulfanyl-4-trifluoromethyl-benzamide] here?
Answer: 14 nM
